The target in test [1] is T1, Adrenergic receptor alpha-2 (Rattus norvegicus, UniProt P22086+P19328+P22909).
T1 sequence (P22086 whole entry): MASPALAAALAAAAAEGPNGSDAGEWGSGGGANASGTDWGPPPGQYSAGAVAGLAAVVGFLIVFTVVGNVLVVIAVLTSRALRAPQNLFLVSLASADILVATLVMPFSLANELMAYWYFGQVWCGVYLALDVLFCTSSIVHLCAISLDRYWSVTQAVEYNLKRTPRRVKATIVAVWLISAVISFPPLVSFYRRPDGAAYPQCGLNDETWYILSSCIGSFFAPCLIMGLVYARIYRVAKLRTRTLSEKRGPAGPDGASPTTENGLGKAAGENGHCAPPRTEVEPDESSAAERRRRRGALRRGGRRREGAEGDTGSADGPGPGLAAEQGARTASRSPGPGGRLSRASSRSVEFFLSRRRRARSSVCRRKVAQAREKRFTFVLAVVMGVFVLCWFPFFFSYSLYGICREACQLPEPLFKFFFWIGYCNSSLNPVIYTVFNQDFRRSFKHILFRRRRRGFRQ
T1 sequence (P19328 whole entry): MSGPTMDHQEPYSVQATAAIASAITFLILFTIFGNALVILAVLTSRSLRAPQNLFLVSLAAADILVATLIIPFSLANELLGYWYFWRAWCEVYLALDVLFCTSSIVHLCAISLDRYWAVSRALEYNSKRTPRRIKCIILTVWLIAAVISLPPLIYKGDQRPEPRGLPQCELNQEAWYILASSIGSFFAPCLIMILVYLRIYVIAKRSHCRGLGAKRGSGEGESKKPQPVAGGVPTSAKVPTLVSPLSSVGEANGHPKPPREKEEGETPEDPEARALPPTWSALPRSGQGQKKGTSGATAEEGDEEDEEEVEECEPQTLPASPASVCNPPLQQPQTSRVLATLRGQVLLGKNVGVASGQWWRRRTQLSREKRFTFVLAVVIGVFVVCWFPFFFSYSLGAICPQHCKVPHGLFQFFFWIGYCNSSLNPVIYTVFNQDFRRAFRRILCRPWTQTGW
T1 sequence (P22909 whole entry): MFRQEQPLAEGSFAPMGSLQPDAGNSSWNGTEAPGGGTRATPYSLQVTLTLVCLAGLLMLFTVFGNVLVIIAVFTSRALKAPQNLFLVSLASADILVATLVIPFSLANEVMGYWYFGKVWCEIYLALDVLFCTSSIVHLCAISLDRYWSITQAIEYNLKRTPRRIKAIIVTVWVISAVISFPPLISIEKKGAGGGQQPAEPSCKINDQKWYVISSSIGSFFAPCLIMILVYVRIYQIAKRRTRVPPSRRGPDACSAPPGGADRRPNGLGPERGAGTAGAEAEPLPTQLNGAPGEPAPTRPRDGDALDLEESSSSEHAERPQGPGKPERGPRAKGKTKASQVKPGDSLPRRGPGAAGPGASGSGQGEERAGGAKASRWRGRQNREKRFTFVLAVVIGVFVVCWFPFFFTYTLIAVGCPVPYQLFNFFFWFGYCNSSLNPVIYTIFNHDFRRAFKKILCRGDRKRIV
Briefly: Compound was tested for the Binding affinity against rat cortical Alpha-2 adrenergic receptor by Radio ligand ([3H]-Rx-821002) binding assay. It is filed as protein assay.

The target in test [2] is T2, 5-hydroxytryptamine receptor 3A (Mus musculus, UniProt P23979).
T2 sequence (P23979 whole entry): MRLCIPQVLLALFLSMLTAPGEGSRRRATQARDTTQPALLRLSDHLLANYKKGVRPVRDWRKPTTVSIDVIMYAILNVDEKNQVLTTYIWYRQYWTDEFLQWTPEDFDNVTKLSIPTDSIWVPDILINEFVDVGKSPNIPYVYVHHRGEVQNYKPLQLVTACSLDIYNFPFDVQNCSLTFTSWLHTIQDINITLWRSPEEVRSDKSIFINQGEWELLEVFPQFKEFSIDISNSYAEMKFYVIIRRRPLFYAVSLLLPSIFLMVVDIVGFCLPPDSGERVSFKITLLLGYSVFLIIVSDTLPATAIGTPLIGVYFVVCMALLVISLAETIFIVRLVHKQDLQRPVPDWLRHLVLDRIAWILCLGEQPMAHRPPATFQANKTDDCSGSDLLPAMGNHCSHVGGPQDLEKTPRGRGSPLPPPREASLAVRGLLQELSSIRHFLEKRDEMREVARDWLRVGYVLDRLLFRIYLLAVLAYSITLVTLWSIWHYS

In a further test the target is Adrenergic receptor beta (Rattus norvegicus, UniProt P18090+P10608+P26255). Briefly: Compound was tested for the Binding affinity against rat cortical Beta adrenergic receptor by Radio ligand [3H]dihydroalprenolol binding assay. The class given is protein assay.
Test [3] has as its target 5-hydroxytryptamine receptor 2A (Rattus norvegicus, UniProt P14842). The experiment in a line: biochemical.
For test [4], the target named is T3, 5-hydroxytryptamine receptor 1A (Rattus norvegicus, UniProt P19327).
T3 sequence (P19327 whole entry): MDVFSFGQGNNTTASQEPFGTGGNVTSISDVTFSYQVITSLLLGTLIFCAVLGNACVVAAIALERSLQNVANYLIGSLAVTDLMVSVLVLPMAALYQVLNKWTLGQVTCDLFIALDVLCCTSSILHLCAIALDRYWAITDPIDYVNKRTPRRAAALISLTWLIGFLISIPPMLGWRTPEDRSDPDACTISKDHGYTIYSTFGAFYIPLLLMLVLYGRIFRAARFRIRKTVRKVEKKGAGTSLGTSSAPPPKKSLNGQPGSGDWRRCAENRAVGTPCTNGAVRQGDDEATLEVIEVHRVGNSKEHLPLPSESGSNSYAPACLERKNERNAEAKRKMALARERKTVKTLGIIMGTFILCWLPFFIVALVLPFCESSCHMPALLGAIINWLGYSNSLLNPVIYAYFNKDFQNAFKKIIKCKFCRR
Briefly: Compound was tested for the Binding affinity against rat hippocampal 5-hydroxytryptamine 1A receptor by Radio ligand [3H]8-OH-DPAT binding assay. The class given is tissue-based, Hippocampus.

A further test addresses D(3) dopamine receptor (Rattus norvegicus, UniProt P19020). The experiment in a line: biochemical.
Test [5] addresses T4, Muscarinic acetylcholine receptor M1 (Rattus norvegicus, UniProt P08482).
T4 sequence (P08482 whole entry): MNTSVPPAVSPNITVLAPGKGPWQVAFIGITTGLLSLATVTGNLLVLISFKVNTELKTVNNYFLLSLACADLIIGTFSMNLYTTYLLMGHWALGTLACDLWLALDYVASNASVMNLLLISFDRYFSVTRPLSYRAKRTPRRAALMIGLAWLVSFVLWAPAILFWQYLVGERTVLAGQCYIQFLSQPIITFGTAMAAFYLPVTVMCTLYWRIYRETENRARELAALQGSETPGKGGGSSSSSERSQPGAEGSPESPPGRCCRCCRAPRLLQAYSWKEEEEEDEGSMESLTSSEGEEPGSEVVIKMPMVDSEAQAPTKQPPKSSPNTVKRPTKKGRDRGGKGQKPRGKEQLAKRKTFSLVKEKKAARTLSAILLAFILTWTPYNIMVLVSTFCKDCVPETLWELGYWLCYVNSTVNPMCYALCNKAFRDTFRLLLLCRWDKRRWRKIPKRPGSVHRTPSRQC
Briefly: Compound was tested for the Binding affinity against rat cortical Muscarinic acetylcholine receptor M1 by Radio ligand [3H]pirenzepine binding assay.

Sequence of 5-hydroxytryptamine receptor 2A (P14842 whole entry): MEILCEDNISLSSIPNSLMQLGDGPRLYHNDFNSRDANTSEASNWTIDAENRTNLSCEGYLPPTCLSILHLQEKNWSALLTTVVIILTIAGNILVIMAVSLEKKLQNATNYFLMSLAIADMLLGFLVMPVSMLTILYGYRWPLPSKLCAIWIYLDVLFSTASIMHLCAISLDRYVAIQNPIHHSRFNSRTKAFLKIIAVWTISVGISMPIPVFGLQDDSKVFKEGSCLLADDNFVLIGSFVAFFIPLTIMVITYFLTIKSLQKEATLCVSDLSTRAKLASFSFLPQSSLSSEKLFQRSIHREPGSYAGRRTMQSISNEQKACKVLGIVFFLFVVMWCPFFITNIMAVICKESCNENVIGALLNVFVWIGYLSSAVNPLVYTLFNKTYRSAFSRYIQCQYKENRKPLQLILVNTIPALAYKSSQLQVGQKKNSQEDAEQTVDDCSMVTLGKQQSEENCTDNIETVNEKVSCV
Sequence of D(3) dopamine receptor (P19020 whole entry): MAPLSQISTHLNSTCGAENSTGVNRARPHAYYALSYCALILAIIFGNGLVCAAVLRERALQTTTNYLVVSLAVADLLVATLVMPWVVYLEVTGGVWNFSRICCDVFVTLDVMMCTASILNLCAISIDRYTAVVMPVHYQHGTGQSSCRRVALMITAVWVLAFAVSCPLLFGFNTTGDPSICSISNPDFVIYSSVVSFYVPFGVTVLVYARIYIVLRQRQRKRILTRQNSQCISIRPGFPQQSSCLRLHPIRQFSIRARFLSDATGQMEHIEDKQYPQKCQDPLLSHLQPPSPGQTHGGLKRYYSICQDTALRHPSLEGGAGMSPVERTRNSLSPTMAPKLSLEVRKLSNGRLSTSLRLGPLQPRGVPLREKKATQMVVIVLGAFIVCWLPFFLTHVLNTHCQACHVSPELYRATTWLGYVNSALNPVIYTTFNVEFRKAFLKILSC
Description for D(3) dopamine receptor: Binding affinity to rat Dopamine receptor D3 expressed in CHO cells was determined using [125 I] iodosulpride as radioligand

Consider `COc1cc(NC(=O)C2CC2)c(Cl)cc1C(=O)N[C@H]1CCN(Cc2ccccc2)C1`, for which the Ki was 4.3 µM in test [1]; 4 µM in test [2]; greater than 10 µM at Adrenergic receptor beta; greater than 10 µM in test [3]; greater than 10 µM in test [4]; 0.021 µM at D(3) dopamine receptor. In addition, the affinity in test [5] corresponds to a Ki of 5.4 µM.

The record behind these values is ChEMBL document CHEMBL1129789, “Dopamine D3 and D4 receptor antagonists: synthesis and structure--activity relationships of (S)-(+)-N-(1-Benzyl-3-pyrrolidinyl)-5-chloro-4- [(cyclopropylcarbonyl) amino]-2-methoxybenzamide (YM-43611) and related compounds” (J Med Chem, 1996).
